PubChem BioAssay (NCI)
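Interpolation was linear, between the two tested concentrations surrounding the appropriate level; five concentrations were tested over 48 hours in 96-well plates. At the GI50, growth is halved. The concentration for full growth arrest is given as TGI.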

Legend:
Experiment in all cases: inhibition of tumour cell growth, NCI panel, 48 h
[1] = tested on: SK-OV-3 ovarian
[2] = tested on: HCT-15 colon
[3] = tested on: UACC-257 melanoma
[4] = tested on: OVCAR-5 ovarian
[5] = tested on: U251 CNS
[6] = tested on: PC-3 prostate
[7] = tested on: HL-60(TB) leukemia
[8] = tested on: MOLT-4 leukemia
[9] = tested on: A498 renal
[10] = tested on: A549 NSCLC

| SMILES | GI50 [1] [µM] | TGI [1] [µM] | GI50 [2] [µM] | TGI [2] [µM] | GI50 [3] [µM] | TGI [3] [µM] | GI50 [4] [µM] | TGI [4] [µM] | GI50 [5] [µM] | TGI [5] [µM] | GI50 [6] [µM] | TGI [6] [µM] | GI50 [7] [µM] | TGI [7] [µM] | GI50 [8] [µM] | TGI [8] [µM] | GI50 [9] [µM] | TGI [9] [µM] | GI50 [10] [µM] | TGI [10] [µM] |
| --- | --- | --- | --- | --- | --- | --- | --- | --- | --- | --- | --- | --- | --- | --- | --- | --- | --- | --- | --- | --- |
| C/C(=N\Nc1ccc(Cl)cn1)c1ccc2ccccc2n1 | 3.73 | > 100 | 0.64 | > 100 | 5.33 | 97.3 | 5.44 | > 100 | 2.83 | > 100 | 3.44 | > 100 | 2.18 | 8.95 | 1.26 | > 100 | 33.4 | > 100 | 4.22 | > 100 |
| CN(C)CCNc1ccc(CO)c2oc3ccc(O)cc3c(=O)c12 |  | 37.4 |  | 29.9 |  | 17.4 |  | 38 |  | 45.7 |  | 29.3 |  | 30.9 |  | 14.3 |  | 28.3 |  | 63.9 |
| COc1ccc(C2=C(Cl)c3cc(OC)c(OC)cc3C2Cl)cc1 (centres undefined) |  | 34.3 |  | 30.6 |  | 39.6 |  | 29.2 |  | 26.6 |  | 26.3 |  | 18.1 |  | > 59.4 |  | 28.9 |  | 36.5 |
| COc1ccc(C(=O)c2cc(OC)c(OC)c(OC)c2)cc1/C=C/C(=O)c1ccc(F)cc1 | 17.9 | 73.1 | 2.14 | 6.96 | 12.3 | 49.7 | 2.67 | 11.5 | 1.85 | 3.54 | 3.3 | 13.7 | 4.8 | > 100 | 3.24 | 29.3 | 14 | 29.9 | 16.5 | > 100 |
| Nc1nc(Nc2cccnc2)sc1C(=O)c1ccccc1F | 15.7 | > 100 | 2.82 | > 87.8 | 4.29 | 40.1 | 2.17 | 7.61 | 2.71 | > 100 | 3.29 | > 100 | 2.09 | 4.81 | 2.52 | > 26.6 | 2.59 | 7.02 | 3.16 | > 100 |
| COc1ccc(-c2[nH]c3ccc(OC)cc3c2/C=C(\C#N)S(=O)(=O)c2ccccc2)cc1 | 0.963 | > 65.9 | 0.614 | > 100 | 7.06 | > 46.5 | 3.85 | > 100 | 0.557 | > 100 | 0.533 | 23.6 | 0.812 |  | 0.745 | > 20.2 | 0.966 | 8.18 | 2.01 | > 68.3 |
| NS(=O)(=O)c1ccc(-c2ccc3c(NC(=O)C4CC4)n[nH]c3c2)cc1 | > 25 | > 25 | > 25 | > 25 | > 25 | > 25 | > 25 | > 25 | > 25 | > 25 | > 25 | > 25 | > 25 | > 25 | > 25 | > 25 | > 25 | > 25 | > 25 | > 25 |
| CC(=O)O[C@H]1CCC2[C@@H]3CC[C@]4(C)CC(=O)C=C[C@]4(C)C3CC[C@@]21C (some centres undefined) |  | > 100 |  | 38.7 |  | 43.9 |  | > 100 |  | 33.1 |  | 77.1 |  | 66.7 |  | 47.9 |  | > 100 |  | 37.9 |
